This passage reports IC50 results from patent publication US8445677B2, “Substituted pyrimidyl guanidine derivatives having anticancer activity” (University of Southern California, priority 2008, dated 2013).

Holding throughout (test): MTT cytotoxicity assay (Example 1)
In general terms: Tetrazolium dyes change colour on reduction, which living cells bring about.

The subject of one test is HCT116 p53+/+. In kind it is cell-based. To be noted: MTT, 72 h. The source says:
(§1) Human breast cancer cells MDA-MB-435 were purchased from the American Type Culture Collection (Manassas, Va.). The HCT116 p53+/+ and HCT116 p53−/− cells were kindly provided by Dr. Bert Vogelstein (Johns Hopkins Medical Institutions, Baltimore, Md.). The human ovarian carcinoma cell line (HEY) which is naturally resistant to cisplatin, was kindly provided by Dr. Louis Dubeau, University of Southern California (USC) Norris Cancer Center, and NIH3T3 normal mouse fibroblast cells were kindly provided by Dr. Michael Press from USC. HEY and NIH3T3 cells were maintained as monolayer cultures in RPMI, HCT 116 cells in McCoy1s5A media and MDA-MB 435 in DMEM. Media were purchased from (Mediatech, Virginia) and supplemented with 10% fetal bovine serum (Gemini-Bioproducts, Woodland, Calif.), 2 mM L-glutamine and 5% Penicillin/streptomycin from Bio whittaker were purchased from VWR. Cells were incubated at 37° C. in a humidified atmosphere of 5% CO2. To remove the adherent cells from the flask for passaging and counting, cells were washed with PBS without calcium or magnesium, incubated with a small volume of 0.25% trypsin-EDTA solution (Sigma-Aldrich, St. Louis, Mo.) for 5-10 min, and washed with culture medium and centrifuged. All experiments were performed using cells at exponential growth stage. Cells were routinely checked for mycoplasma contamination using a PCR-based assay (Stratagene, Tex., USA).
(§2) Stock solutions (10 mM) of all compounds were prepared in DMSO and stored at −20° C. Further dilutions were made fresh in PBS or cell-culture media right before cell treatment.
(§3) Cytotoxicity was assessed by a 3-(4,s-dimethylthiazol-2-yl)-2,5-diphenyltetrazolium bromide (MTT) assay as previously described.^24 Briefly, cells were seeded in 96-well microtiter plates and allowed to attach overnight. Cells were subsequently treated with continuous exposure to the corresponding drug for 72 h. A MTT solution (at a final concentration of 0.5 mglml) was added to each well, and cells were incubated for 4 h at 37° C. After removal of the medium, DMSO was added and the absorbance was read at 570 nm. All assays were done in triplicate. The IC50 was then determined for each drug from a plot of log (drug concentration) versus percentage of cells killed.

For a further test, the system named is HCT116 p53−/−. Type of test: cell-based. To be noted: MTT, 72 h.
Text: as §1, §2, §3

The subject of another test is HEY. Type of test: cell-based, human. To be noted: 72 h.
Text: as §1, §2, §3

For the next test, the system named is MDA-MB-435. In kind it is cell-based, human.
Text: as §1, §2, §3

Another test deals with NIH3T3. Type of test: cell-based, mouse.
Text: as §1, §2, §3

Each structure is given as a SMILES string. Values joined by “and” are separate entries in the source; they are usually repeats but may differ in a detail not shown here. Identical values can stand only once.

As for `O=C(O)c1cc(-c2ccc(C=NNc3nc4nonc4nc3Nc3cccc(Br)c3)o2)ccc1O` [Compound 18], the IC50 (in general, the concentration that inhibits the measured activity by half) in the test on HCT116 p53+/+ (Homo sapiens, HCT-116, 72 h) was over 10 µM; with HCT116 p53−/− (Homo sapiens, HCT-116, 72 h) it was over 10 µM; in the test with HEY (Homo sapiens), over 10 µM; in the test on MDA-MB-435 (Homo sapiens, MDA-MB-435, 72 h), over 10 µM; with NIH3T3 (Mus musculus, NIH3T3, 72 h) it was 11 µM.
For the molecule `C/C(=N\C(=N)Nc1nc(C)c2cc(C)ccc2n1)c1ccccc1C(=O)O` [Compound 33], the IC50 with HCT116 p53+/+ (Homo sapiens, HCT-116, 72 h) stood at 18 µM; with HCT116 p53−/− (Homo sapiens, HCT-116, 72 h), 5 µM; in the test with HEY it was 3 µM; in the test on HEY (Homo sapiens) it was 5 µM; with MDA-MB-435 (72 h) it was 18 µM; in the test on MDA-MB-435 (Homo sapiens, MDA-MB-435, 72 h), 17 µM. The same molecule returned an IC50 with NIH3T3 (Mus musculus, NIH3T3, 72 h) of 14 µM.
For the molecule `Brc1ccc(/C=N/Nc2nc3nonc3nc2Nc2cccc(Br)c2)cc1` [Compound 5], the IC50 with HCT116 p53+/+ (Homo sapiens, HCT-116, 72 h) is 2 µM; in the test with HCT116 p53−/− (Homo sapiens, HCT-116, 72 h) it was 1.1 µM; in the test on HCT116 p53−/−, 1.2 µM; with HEY, 3 µM; in the test with HEY (Homo sapiens) it was 2 µM; in the test on MDA-MB-435 (Homo sapiens, MDA-MB-435, 72 h) it was over 10 µM. In addition, in the test on NIH3T3 (Mus musculus, NIH3T3, 72 h), half-maximal inhibition (IC50) required 1 µM.
Take `CCCCCCc1nc2ccccc2c(=O)n1NC(=O)c1c(O)c2ccccc2n(CC)c1=O` [Compound 26]: the IC50 was over 20 µM in the test on HCT116 p53+/+ (Homo sapiens, HCT-116, 72 h); over 10 µM in the test on HCT116 p53−/− (Homo sapiens, HCT-116, 72 h); 20 µM with HEY (Homo sapiens); over 20 µM in the test on MDA-MB-435 (Homo sapiens, MDA-MB-435, 72 h); 20 µM in the test on NIH3T3 (Mus musculus, NIH3T3, 72 h).
In the case of `CCCn1c(=O)c(C(=O)NNC(=O)COc2ccccc2)c(O)c2ccccc21` [Compound 25], the concentration for half-maximal inhibition (IC50) is 10 µM in the test with HCT116 p53+/+ (Homo sapiens, HCT-116, 72 h); over 10 µM in the test with HCT116 p53−/− (Homo sapiens, HCT-116, 72 h); over 10 µM with HEY (Homo sapiens); over 20 µM in the test with MDA-MB-435 (Homo sapiens, MDA-MB-435, 72 h); over 10 µM in the test with NIH3T3 (Mus musculus, NIH3T3, 72 h).
On to `CCCCn1c(=O)c(C(=O)Nc2nnc(C)s2)c(O)c2ccccc21` [Compound 30], for which the IC50 with HCT116 p53+/+ (Homo sapiens, HCT-116, 72 h) is 6 ± 3 µM; in the test on HCT116 p53−/− (Homo sapiens, HCT-116, 72 h), 8 µM; in the test on HEY, 14 µM; with HEY (Homo sapiens) it was 10 µM; with MDA-MB-435 (Homo sapiens, MDA-MB-435, 72 h), 7 µM; in the test on NIH3T3 (Mus musculus, NIH3T3, 72 h), 5 µM.
Turning to `O=C(O)c1cccc(-c2ccc(C=NNc3nc4nonc4nc3Nc3ccc(F)cc3)o2)c1` [Compound 15], the IC50 in the test with MDA-MB-435 (72 h) is 2.8 µM and 3 µM; in the test on MDA-MB-435 (Homo sapiens, MDA-MB-435, 72 h) it was under 3 µM; in the test on NIH3T3 (Mus musculus, NIH3T3, 72 h) it was 10 µM.
For `O=C(O)c1cc(-c2ccc(/C=N/Nc3nc4nonc4nc3Nc3ccccc3F)o2)ccc1Cl` [Compound 17], the half-maximal inhibitory concentration (IC50) was 7 ± 1 µM in the test with HCT116 p53+/+; over 10 µM in the test with HCT116 p53−/−; 15 µM with HEY; over 20 µM with MDA-MB-435 (72 h); over 10 µM in the test on NIH3T3 (72 h).
Regarding `O=C(O)c1cc(-c2ccc(/C=N/Nc3nc4nonc4nc3Nc3ccccc3F)o2)ccc1Cl` [Compound 14], the IC50 in the test on HCT116 p53+/+ (Homo sapiens, HCT-116, 72 h) is over 10 µM; in the test with HCT116 p53−/− (Homo sapiens, HCT-116, 72 h), 7 µM; with HEY (Homo sapiens), 10 µM; in the test on MDA-MB-435 (Homo sapiens, MDA-MB-435, 72 h) it was over 10 µM; in the test on NIH3T3 (Mus musculus, NIH3T3, 72 h) it was over 10 µM.
For the molecule `O=C(Nn1c(Cc2ccccc2)nc2ccccc2c1=O)c1c(O)c2cccc3c2n(c1=O)CCC3` [Compound 28], the IC50 is over 20 µM in the test with HCT116 p53+/+ (Homo sapiens, HCT-116, 72 h); over 10 µM in the test with HCT116 p53−/− (Homo sapiens, HCT-116, 72 h); 15 µM with HEY; 19 µM in the test on HEY (Homo sapiens); over 10 µM with MDA-MB-435 (Homo sapiens, MDA-MB-435, 72 h); over 10 µM with NIH3T3 (Mus musculus, NIH3T3, 72 h).
As for `CCOC(=O)c1ccc(Nc2nc3nonc3nc2N/N=C/c2cccc3ccccc23)cc1` [Compound 11], the IC50 in the test on HCT116 p53+/+ (Homo sapiens, HCT-116, 72 h) is over 10 µM; with HCT116 p53−/− (Homo sapiens, HCT-116, 72 h), 2 µM; in the test on HEY (Homo sapiens) it was 4 µM; in the test with MDA-MB-435 (Homo sapiens, MDA-MB-435, 72 h) it was over 10 µM; with NIH3T3 (Mus musculus, NIH3T3, 72 h) it was 2 µM.
For `Cc1ccccc1Nc1nc2nonc2nc1N/N=C/c1cccc2ccccc12` [Compound 12], the IC50 in the test with HCT116 p53+/+ (Homo sapiens, HCT-116, 72 h) was over 10 µM; in the test on HCT116 p53−/− (Homo sapiens, HCT-116, 72 h) it was 10 µM; with HEY (Homo sapiens), over 10 µM; in the test on MDA-MB-435 (Homo sapiens, MDA-MB-435, 72 h), over 10 µM; with NIH3T3 (Mus musculus, NIH3T3, 72 h), 10 µM.
Consider `C=CCn1c(=O)c(C(=O)Nc2nc(CC(=O)OCC)cs2)c(O)c2ccccc21` [Compound 31], for which the IC50 with HCT116 p53+/+ (Homo sapiens, HCT-116, 72 h) is 20 µM; in the test on HCT116 p53−/− (Homo sapiens, HCT-116, 72 h), over 10 µM; in the test on HEY (Homo sapiens) it was over 10 µM; in the test with MDA-MB-435 (Homo sapiens, MDA-MB-435, 72 h), over 10 µM; in the test with NIH3T3 (Mus musculus, NIH3T3, 72 h), over 10 µM.
With `Oc1ccc(Br)cc1/C=N/Nc1nc2nonc2nc1Nc1ccc(Cl)cc1` [Compound 6], the IC50 in the test on HCT116 p53+/+ (Homo sapiens, HCT-116, 72 h) is under 3 µM; in the test on HCT116 p53+/+ it was 2.7 ± 0.6 µM; in the test on HCT116 p53−/− (Homo sapiens, HCT-116, 72 h), under 3 µM; with HCT116 p53−/−, 1.6 ± 0.7 µM; in the test with HEY it was 1.6 ± 0.6 µM; in the test on HEY (Homo sapiens), under 3 µM. Also, the IC50 in the test on MDA-MB-435 (72 h) is 4 ± 1 µM; in the test with MDA-MB-435 (Homo sapiens, MDA-MB-435, 72 h), under 3 µM; in the test on NIH3T3 (Mus musculus, NIH3T3, 72 h), 2 ± 0.5 µM.
